The values that follow are results of earlier work, collected in patent US20220202720A1, “SUSTAINED RELEASE C[…] AND METHOD OF PREPARATION THEREOF” (PHARMATHEN S.A., priority 2019, published 2022).

This data set addresses recombinant μ-opioid receptor (Homo sapiens, UniProt P35372).

Chain of recombinant μ-opioid receptor (P35372 whole entry, species assumed): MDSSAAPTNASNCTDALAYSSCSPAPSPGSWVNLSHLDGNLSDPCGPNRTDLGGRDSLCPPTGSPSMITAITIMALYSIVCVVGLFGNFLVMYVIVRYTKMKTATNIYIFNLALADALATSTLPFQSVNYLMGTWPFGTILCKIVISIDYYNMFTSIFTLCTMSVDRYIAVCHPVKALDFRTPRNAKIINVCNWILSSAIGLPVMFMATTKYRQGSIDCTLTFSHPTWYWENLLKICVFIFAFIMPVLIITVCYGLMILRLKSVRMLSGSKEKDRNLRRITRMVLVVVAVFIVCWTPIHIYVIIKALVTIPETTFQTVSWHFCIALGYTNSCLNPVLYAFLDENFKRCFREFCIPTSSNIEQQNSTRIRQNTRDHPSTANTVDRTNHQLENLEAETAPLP

Regarding `CC[C@@H](c1cccc(O)c1)[C@@H](C)CN(C)C` [Tapentadol], the “reduced affinity to recombinant μ-opioid receptor compared to morphine” value is listed as 18 times.
